Test results taken from US6462055B2, “Alpha-methylbenzyl-containing thiourea inhibitors of herpes viruses containing a phenylenediamine group” (Wyeth, priority 1998, dated 2002).
Converted amounts (≈) assume the structure as drawn.

Key:
[1] = tested on: HCMV recombinant mutant virus (RV145); experiment: microbe, parasite or virus in culture; assay type: cell-based, human cytomegalovirus; conditions: for IC50: Human betaherpesvirus 5, read-out: IC50 ug/ml HCMV, HCMV
From the text: Microtiter plate assay. Ninety-six well plate cultures of human foreskin fibroblasts are infected in the presence of inhibitor compound with a HCMV recombinant mutant virus whose genome contains the prokaryotic beta-glucuronidase gene (Jefferson, R. A., S. M. Burgess, and D. Hirsh. 1986. Beta-glucuronidase from Escherichia coli as a gene fusion marker. Proc. Natl. Acad. Sci. USA 83:8447-8451) whose expression is controlled by a viral promoter. An example of such a virus is RV145 (Jones, T. R., V. P. Muzithras, and Y. Gluzman. 1991. Replacement mutagenesis of the human cytomegalovirus genome: US10 and US11 gene products are nonessential. J. Virol. 65:5860-5872). Since it is under the control of a viral promoter, beta-glucuronidase expression is an indirect indicator of growth and replication of HCMV in this assay. At 96 hours post-infection, the infected cell lysates are prepared (using 50 mM sodium phosphate [pH7.0]containing 0.1% Triton X-100 and 0.1% sarkosyl) and assayed for beta-glucuronidase activity using a substrate for the enzyme which when cleaved yields either a product which can be measured […] in a spectrophotometer or fluorescently in a microfluorimeter. Examples of such substrates are p-nitrophenyl-beta-D-glucuronide and methylumbelliferylglucuronide, respectively. The presence of an antiviral compound is indicated by the reduced expression of the HCMV genome resident beta-glucuronidase gene, compared to the absence of inhibitor. […] Data from this assay generated using varying amounts of inhibitor compound is also used to estimate the IC50 of an inhibitor compound.

HSV-1 = experiment: HSV Antiviral (ELISA) Assay in Vero cells; assay type: cell-based, herpes simplex virus type 1; conditions: HSV-1, Vero cells; for IC50: Human alphaherpesvirus 1, read-out: IC50 (ug/ml) HSV
How it was run: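 Viral replication was quantified by cell-fixed ELISA for HSV glycoprotein D, using a β-galactosidase reporter and fluorogenic umbelliferyl substrate, about 24 h after HSV-1 infection (MOI 0.006) of Vero cells. Compounds, at several concentrations, were added 30 min pre-infection. IC50 was derived from fluorescence relative to the compound-free signal.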

VZV strain Ellen = experiment: VZV Antiviral (ELISA) Assay in human foreskin fibroblast cells; assay type: cell-based, varicella-zoster virus; conditions: for IC50: read-out: IC50 (ug/ml) VZV
How it was run: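 Cell-based VZV (Ellen) spread assay in HFF, 3-day compound exposure in 2% FBS medium. Viral antigen quantified by fluorescent β-galactosidase ELISA; IC50 from inhibition of signal.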

[2] = Human alphaherpesvirus 3, Fibroblast

SMILES	IC50 ug/ml HCMV [1]	IC50 (ug/ml) HSV (HSV-1)	IC50 (ug/ml) VZV (VZV strain Ellen)	% inhibition 10 ug/ml VZV (VZV strain Ellen)	IC50 [1]	IC50 (HSV-1)	inhibition at 10 µg/mL (VZV strain Ellen; Human alphaherpesvirus 3, Fibroblast, read-out: % inhibition 10 ug/ml VZV, 10 ug/ml)	IC50 (VZV strain Ellen; [2])
Nc1nccc(-c2ccc(NC(=S)Nc3ccc(NC(=O)c4ccccc4F)cc3)cc2Cl)n1 [Example 502]	1.8 µg/mL (≈ 3.65 µM)	>10 µg/mL	>10 µg/mL	13%	–	–	–	–
CC(NC(=S)Nc1ccc(NC(=O)c2ccccc2F)cc1)c1cccc(Br)c1 (stereo not drawn) [Example 780]	1 µg/mL (≈ 2.12 µM)	>10 µg/mL	1.2 µg/mL (≈ 2.54 µM)	–	–	–	–	–
CC(C)c1cccc(NC(=S)Nc2ccc(NC(=O)c3ccccc3F)cc2)c1 [Example 452]	2 µg/mL (≈ 4.91 µM)	4 µg/mL (≈ 9.82 µM)	1 µg/mL (≈ 2.45 µM)	75%	–	–	–	–
O=C(Nc1ccc(NC(=S)NC(c2ccccc2)c2ccc(F)cc2)cc1)c1ccccc1F (stereo not drawn) [Example 772]	0.35 µg/mL (≈ 0.739 µM)	>10 µg/mL	–	–	–	–	–	–
COc1cc(OC)c(NC(=S)Nc2ccc(NC(=O)c3ccccc3N[S+](C)[O-])cc2)cc1Cl (stereo not drawn) [Example 191]	>10 µg/mL	8 µg/mL (≈ 15.4 µM)	>10 µg/mL	22%	–	–	–	–
Cc1ccc(NC(=S)Nc2ccc(NC(=O)c3ccccc3F)cc2)cc1Cl [Example 231]	>10 µg/mL	0.5 µg/mL (≈ 1.21 µM)	>10 µg/mL	11%	–	–	–	–
Cc1ccc(NC(=S)Nc2ccc(NC(=O)c3c(F)cccc3F)cc2)cc1Cl [Example 235]	>10 µg/mL	0.2 µg/mL (≈ 0.463 µM)	>10 µg/mL	50%	–	–	–	–
O=C(Nc1ccc(NC(=S)Nc2cccc([N+](=O)[O-])c2)cc1)c1ccccc1F [Example 959, 2-Fluoro-N-{4-[3-(3-nitro-phenyl)-thioureido]-phenyl}-benzamide]	–	–	–	–	> 10 µg/mL	0.7 µg/mL (≈ 1.71 µM)	33%	> 10 µg/mL
O=C(Nc1ccc(NC(=S)Nc2ccc(SC3CCCCC3)c(Cl)c2)cc1)c1ccccc1F [Example 357]	9 µg/mL (≈ 17.5 µM)	>10 µg/mL	40 µg/mL (≈ 77.8 µM)	44%	–	–	–	–
CN(C)CC(=O)Nc1ccc(NC(=S)Nc2ccc(NC(=O)c3ccccc3F)cc2)cc1Cl [Example 362]	>10 µg/mL	>10 µg/mL	>10 µg/mL	8%	–	–	–	–
CC(NC(=S)Nc1ccc(NC(=O)c2cnc3ccccc3c2)cc1)c1ccc(F)cc1 (stereo not drawn) [Example 988, Quinoline-3-carboxylic acid (4-{3-[1-(4-fluoro-phenyl)-ethyl]-thioureido}-phenyl)-amide]	–	–	–	–	> 10 µg/mL	> 10 µg/mL	–	3.4 µg/mL (≈ 7.65 µM)
COc1cccc(C(=O)Nc2ccc(NC(=S)NC(C)c3ccc(F)cc3)cc2)c1 (stereo not drawn) [Example 753]	>0.5 µg/mL	>10 µg/mL	>7.5 µg/mL	–	–	–	–	–
COc1cc(OC)c(NC(=S)Nc2ccc(NC(=O)c3ccccc3[N+](=O)[O-])cc2)cc1Cl [Example 143]	> 10 µg/mL	1 µg/mL (≈ 2.05 µM)	>15 µg/mL	68%	–	–	–	–
COc1ccc(C(=O)Nc2ccc(NC(=S)NC(C)c3ccc(F)cc3)cc2)cc1 (stereo not drawn) [Example 754]	>10 µg/mL	>10 µg/mL	0.2 µg/mL (≈ 0.472 µM)	–	–	–	–	–
CC(NC(=S)Nc1ccc(NC(=O)c2ccccc2F)cc1)c1ccc(S(=O)(=O)N2CCCCC2)cc1 (stereo not drawn) [Example 1009]	>10 µg/mL	>10 µg/mL	>10 µg/mL	–	–	–	–	–
Cc1ccc(NC(=S)Nc2ccc(NC(=O)c3ccccc3F)cc2Cl)cc1Cl [Example 459]	>10 µg/mL	0.12 µg/mL (≈ 0.268 µM)	>10 µg/mL	25%	–	–	–	–
COc1cc(OC)c(NC(=S)Nc2ccc(NC(=O)c3ccccc3SC)cc2)cc1Cl [Example 194]	>10 µg/mL	1.5 µg/mL (≈ 3.07 µM)	>10 µg/mL	45%	–	–	–	–
Cc1cc(CCNC(=S)Nc2ccc(NC(=O)c3ccccc3F)cc2)ccc1N(C)C [Example 673]	>0.5 µg/mL	7 µg/mL (≈ 15.5 µM)	–	–	–	–	–	–
COCCOc1ccc(NC(=S)Nc2ccc(NC(=O)c3ccccc3F)cc2)cc1Cl [Example 996, N-(4-{3-[3-Chloro-4-(2-methoxy-ethoxy)-phenyl]-thioureido}-phenyl)-2-fluoro-benzamide]	–	–	–	–	> 10 µg/mL	> 10 µg/mL	–	10 µg/mL (≈ 21.1 µM)

SMILES	IC50 ug/ml HCMV [1]	IC50 (ug/ml) HSV (HSV-1)	IC50 (ug/ml) VZV (VZV strain Ellen)	% inhibition 10 ug/ml VZV (VZV strain Ellen)	IC50 [1]	IC50 (HSV-1)	inhibition at 10 µg/mL (VZV strain Ellen; Human alphaherpesvirus 3, Fibroblast, read-out: % inhibition 10 ug/ml VZV, 10 ug/ml)	IC50 (VZV strain Ellen; [2])
COc1ccc(C(=O)Nc2ccc(NC(=S)Nc3cc(Cl)c(OC)cc3OC)cc2)cc1 [Example 121]	6 µg/mL (≈ 12.7 µM)	0.3 µg/mL (≈ 0.636 µM)	>10 µg/mL	0%	–	–	–	–
O=C(Nc1ccc(NC(=S)NCc2cccc(Cl)c2)cc1)c1ccccc1F [Example 511]	>10 µg/mL	>10 µg/mL	>10 µg/mL	10%	–	–	–	–
O=C(Nc1ccc(NC(=S)Nc2ccc(Cl)cc2)cc1)c1ccccc1F [Example 946, N-{4-[3-(4-Chloro-phenyl)-thioureido]-phenyl}-2-fluoro-benzamide]	–	–	–	–	> 10 µg/mL	> 10 µg/mL	–	–
O=C(CN1CCCCCC1)Nc1ccc(NC(=S)Nc2ccc(NC(=O)c3ccccc3F)cc2)cc1Cl [Example 423]	1 µg/mL (≈ 1.8 µM)	4 µg/mL (≈ 7.22 µM)	0.9 µg/mL (≈ 1.62 µM)	87%	–	–	–	–
O=C(Nc1ccc(NC(=S)Nc2cc(C(F)(F)F)cc(C(F)(F)F)c2)cc1)c1ccccc1F [Example 517]	1.1 µg/mL (≈ 2.19 µM)	>10 µg/mL	>10 µg/mL	5%	–	–	–	–
COc1ccccc1C(=O)Nc1ccc(NC(=S)NC(C)c2cc3ccccc3o2)cc1 (stereo not drawn) [Example 1018, N-{4-[3-(1-Benzofuran-2-yl-ethyl)-thioureido]-phenyl}-2-methoxy-benzamide]	–	–	–	–	> 10 µg/mL	> 10 µg/mL	–	0.09 µg/mL (≈ 0.202 µM)
CC(NC(=S)Nc1ccc(NC(=O)c2ccccc2F)cc1)c1cc2ccccc2o1 (stereo not drawn) [Example 1002, N-{4-[3-(1-Benzofuran-2-yl-ethyl)-thioureid]-phenyl}-2-fluoro-benzamide]	2.1 µg/mL (≈ 4.84 µM)	>10 µg/mL	0.08 µg/mL (≈ 0.185 µM)	–	–	–	–	–
O=C(Nc1ccc(NC(=S)NCCSc2ccccc2)cc1)c1ccccc1F [Example 656]	>0.5 µg/mL	5 µg/mL (≈ 11.7 µM)	–	–	–	–	–	–
O=C(Nc1ccc(NC(=S)NCc2cccc(I)c2)cc1)c1ccccc1F [Example 661]	–	–	–	–	> 0.5 µg/mL	> 10 µg/mL	–	–
O=C(Nc1ccc(NC(=S)NCc2ccc(F)c(F)c2)cc1)c1ccccc1F [Example 672]	–	–	–	–	> 0.5 µg/mL	> 10 µg/mL	–	–
O=C(Nc1ccc(NC(=S)NCCOc2ccc(Br)cc2)cc1)c1ccccc1F [Example 695]	>3 µg/mL	>10 µg/mL	–	–	–	–	–	–
O=C(Nc1ccc(NC(=S)NCc2ccc(F)c(Cl)c2)cc1)c1ccccc1F [Example 677]	>0.5 µg/mL	>10 µg/mL	–	–	–	–	–	–
O=C(Nc1ccc(NC(=S)NCCOc2ccc(I)cc2)cc1)c1ccccc1F [Example 696]	–	–	–	–	> 3 µg/mL	10 µg/mL (≈ 18.7 µM)	–	–
CC1CN(c2ccc(CNC(=S)Nc3ccc(NC(=O)c4ccccc4F)cc3)cc2C(F)(F)F)CCN1 (stereo not drawn) [Example 687]	>0.5 µg/mL	1.2 µg/mL (≈ 2.2 µM)	–	–	–	–	–	–
O=C(Nc1ccc(NC(=S)NCCc2ccc(Cl)c(Cl)c2)cc1)c1ccccc1F [Example 719]	>0.5 µg/mL	>10 µg/mL	–	–	–	–	–	–
COc1ccccc1C(=O)Nc1ccc(NC(=S)NC(C)c2ccc(F)cc2)cc1 (stereo not drawn) [Example 752]	>0.5 µg/mL	>10 µg/mL	–	–	–	–	–	–
O=C(Nc1ccc(NC(=S)NCCSc2cccc(Br)c2)cc1)c1ccccc1F [Example 680]	>0.5 µg/mL	>10 µg/mL	–	–	–	–	–	–
CN(C)c1cc(CCNC(=S)Nc2ccc(NC(=O)c3ccccc3F)cc2)cc(C(F)(F)F)c1 [Example 653]	>0.5 µg/mL	>10 µg/mL	–	–	–	–	–	–
O=C(Nc1ccc(NC(=S)NCc2cc(C(F)(F)F)ccc2F)cc1)c1ccccc1F [Example 669]	–	–	–	–	> 0.5 µg/mL	> 10 µg/mL	–	–
